Patent US9156828B2, “Tricyclic amidine derivatives as HIV attachment inhibitors” (priority 2012, dated 2015)
Like-named read-outs stand apart in the source and are kept apart here.

System: HIV-1 LAI envelope single-round infectious reporter virus
Assay: Single-round infectious HIV-1 LAI luciferase reporter virus infection of MT2 cells
Format: cell-based
Conditions: Human immunodeficiency virus 1, MT2, 72 h
Description: Virus Production— • Human embryonic Kidney cell line, 293T (HEK 293T), was propagated in Dulbecco's Modified Eagle Medium (Invitrogen, Carlsbad, Calif.) containing 10% fetal bovine serum (FBS, Sigma, St. Louis, Mo.). The human T-cell leukemia cell MT2 (AIDS Research and Reference Reagent Program, Cat. 237) was propagated in RPMI 1640 (Invitrogen, Carlsbad, Calif.) containing 10% fetal bovine serum (FBS, Hyclone, Logan, Utah)
Virus Infection— • Single-round infectious reporter virus was produced by co-transfecting HEK 293T cells with plasmide expressing the HIV-1 LAI envelope along with a plasmid containing an HIV-1 LAI proviral cDNA with the envelope gene replaced by a firefly luciferase reporter gene (Chen et al., Ref 41). Transfections were performed using lipofectAMINE PLUS reagent as described by the manufacturer (Invitrogen, Carlsbad, Calif.). Experimental Procedure • 1. MT2 cells were plated in black, 384 well plates at a cell density of 5×10^3 cells per well in […] RPMI 1640 containing 10% FBS. • 2. Compound (diluted in dimethylsulfoxide and growth medium) was added to cells at 12.5 μl/well, so that the final assay concentration would be […]. • 3. 12.5 μl of single-round infectious reporter virus in Dulbecco's Modified Eagle Medium was added to the plated cells and compound at an approximate multiplicity of infection (MOI) of 0.01, resulting in a final volume of 50 μl per well. • 4. Virus-infected cells were incubated at 37 degrees Celsius in a CO2 incubator and harvested 72 h after infection. • 5. Viral infection was monitored by measuring luciferase expression in the infected cells using a luciferase reporter gene assay kit (Steady-Glo, Promega, Madison, Wis.) as described by the manufacturer. Luciferase activity was then quantified by measuring luminescence using an EnVision Multilabel Plate Readers (PerkinElmer, Waltham, Mass.). • 6. The percent inhibition for each compound was calculated by quantifying the level of luciferase expression in cells infected in the presence of each compound as a percentage of that observed for cells infected in the absence of compound and subtracting such a determined value from 100. • 7. An EC50 provides a method for comparing the antiviral potency of the compounds herein. The effective concentration for fifty percent inhibition (EC50) was calculated with the Microsoft Excel Xlfit curve fitting software. For each compound, curves were generated from percent inhibition calculated at 10 different concentrations by using a four parameter logistic model (model 205). Table 1 is the key for the data in Table 2.

[1] = read-out: EC50 Group from Table 1

Row | SMILES | EC50 [nM] | EC50 [1] [nM]
1 | COc1cnc(-n2cnc(C)n2)c2[nH]cc(C(=O)C(=O)N3CCN(C4=Nc5ccccc5Oc5ccc(Cl)cc54)CC3)c12 [Compound 1005] | 1.83 | < 500
2 | O=C(C(=O)N1CCN(C2=Nc3ccccc3Oc3ccc(Cl)cc32)CC1)c1c[nH]c2c(Br)ccc(F)c12 [Compound 1004] | – | > 500
3 | O=C(C(=O)N1CCN(C2=Nc3ccccc3Oc3ccc(Cl)cc32)CC1)c1c[nH]c2ccccc12 [Compound 1001] | 706 | > 500
4 | O=C(C(=O)N1CCN(C2=Nc3cc(Cl)ccc3Nc3ccccc32)CC1)c1c[nH]c2ccccc12 [Compound 1002] | – | > 500
5 | COc1cnc(-n2cnc(C)n2)c2[nH]cc(C(=O)C(=O)N3CCN(C4=Nc5cc(Cl)ccc5Nc5ccccc54)CC3)c12 [Compound 1006] | – | < 500
6 | COc1cnc(-n2cncn2)c2[nH]cc(C(=O)C(=O)N3CCN(C4=Nc5ccccc5Oc5ccc(Cl)cc54)CC3)c12 [Compound 1003] | – | < 500
